Activity calls are given as the source filed them. The rule behind the calls is not given here.
Tests used:
[1] = biological target: T1, Listeriolysin regulatory protein (Listeria monocytogenes serovar 1/2a (strain ATCC BAA-679 / EGD-e), UniProt P22262); test: Binding affinity to Listeria monocytogenes 6-His-tagged PrfA expressed in Escherichia coli BL21 (DE3) pLysS assessed as inhibition of protein binding with biotinylated hpt-DNA by SPR method
T1 sequence (P22262 whole entry): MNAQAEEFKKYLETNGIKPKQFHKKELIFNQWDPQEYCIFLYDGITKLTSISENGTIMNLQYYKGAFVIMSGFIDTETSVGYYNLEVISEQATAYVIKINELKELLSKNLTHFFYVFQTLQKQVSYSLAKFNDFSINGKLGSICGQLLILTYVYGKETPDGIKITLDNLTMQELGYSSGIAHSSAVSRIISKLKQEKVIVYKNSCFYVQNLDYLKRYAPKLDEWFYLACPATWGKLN

[2] = biological target: T2, Listeriolysin regulatory protein (Listeria monocytogenes serovar 1/2a (strain ATCC BAA-679 / EGD-e)) (UniProt P22262); test: Inhibition of PrfA in Listeria monocytogenes EGD-e assessed as downregulation of LLO expression at 10 uM by Western blot method
T2 sequence (whole entry): T1 sequence (P22262 whole entry)

[3] = biological target: T2, Listeriolysin regulatory protein (Listeria monocytogenes serovar 1/2a (strain ATCC BAA-679 / EGD-e)); test: Inhibition of PrfA in Listeria monocytogenes EGD-e assessed as downregulation of ActA expression at 10 uM by Western blot method
[4] = biological target: T2, Listeriolysin regulatory protein (Listeria monocytogenes serovar 1/2a (strain ATCC BAA-679 / EGD-e)); test: Inhibition of PrfA in Listeria monocytogenes EGD-e assessed as downregulation of LLO expression at 1 uM by Western blot method
[5] = biological target: T2, Listeriolysin regulatory protein (Listeria monocytogenes serovar 1/2a (strain ATCC BAA-679 / EGD-e)); test: Inhibition of PrfA in Listeria monocytogenes EGD-e assessed as downregulation of ActA expression at 1 uM by Western blot method
[6] = biological target: T2, Listeriolysin regulatory protein (Listeria monocytogenes serovar 1/2a (strain ATCC BAA-679 / EGD-e)); test: Binding affinity to GFP expressing Listeria monocytogenes EGD-e PrfA expressed in Escherichia coli assessed as inhibition of bacterial uptake in human Caco2 cells at 20 uM incubated for 4 hrs by flow cytometric method relative to (R)-8-cyclopropyl-7-(naphthalen-1-ylmethyl)-5-oxo-3,5-dihydro-2H-thiazolo[3,2-a]pyridine-3-carboxylic acid
[7] = biological target: T2, Listeriolysin regulatory protein (Listeria monocytogenes serovar 1/2a (strain ATCC BAA-679 / EGD-e)); test: Binding affinity to Listeria monocytogenes 6-His-tagged PrfA expressed in Escherichia coli BL21 (DE3) pLysS by ITC method
Listeria monocytogenes [8] = test: Effect on growth of Listeria monocytogenes EGD-e at 100 uM after 7 hrs; type: organism-based; settings: in vivo
Gallus gallus = species: Gallus gallus; test: Toxicity in chicken embryo at 4 to 8 uM measured over 72 hrs; type: organism-based; settings: in vivo
Listeria monocytogenes [9] = test: Antivirulence activity against Listeria monocytogenes EGD-e infected in chicken embryo assessed as increase in embryo life span at 5 uM measured over 72 hrs; type: functional
Listeria monocytogenes [10] = test: Effect on PrfA expression in Listeria monocytogenes EGD-e at 1 uM by Western blot method; type: functional
[11] = biological target: T2, Listeriolysin regulatory protein (Listeria monocytogenes serovar 1/2a (strain ATCC BAA-679 / EGD-e)); test: Binding affinity to GFP expressing Listeria monocytogenes EGD-e PrfA expressed in Escherichia coli assessed as inhibition of bacterial uptake in human Caco2 cells at 1 uM incubated for 4 hrs by flow cytometric method relative to control

Q: `O=C(O)[C@@H]1CSc2c(C3CC3)c(Cc3cccc4ccccc34)cc(=O)n21` was tested. Which IC50 [1] did it give?
A: 4.5 µM

Q: And the inhibition [2]?
A: Active

Q: What about the inhibition [3] of the same compound?
A: Active

Q: And the inhibition [4]?
A: Active

Q: And the inhibition [5]?
A: Active

Q: `Cc1ccc(Cc2cc(=O)n3c(c2C2CC2)SC[C@H]3C(=O)O)c2ccccc12` was tested. Which fold change (FC) [6] did it give?
A: 0.5

Q: Which fold change (FC) [6] does the source give for `O=C(O)[C@@H]1CSc2c(C3CC3)c(Cc3cnc4ccccc4c3)cc(=O)n21` here?
A: 13

Q: Which results are given for `CN(C)c1c(Cc2cccc3ccccc23)cc(=O)n2c1SCC2C(=O)O.Cl` (racemic)?
A: IC50 [1]: 1.8 µM; Activity [7]: Active; inhibition [2]: Active; inhibition [3]: Active; inhibition [4]: Active; inhibition [5]: Active; Activity (Listeria monocytogenes [8]): Non-Toxic; fold change (FC) [6]: 0.7

Q: What does the source list for `COc1c(Cc2cccc3ccccc23)cc(=O)n2c1SCC2C(=O)O` (racemic)?
A: IC50 [1]: 65.6 µM; Activity [7]: Active; inhibition [2]: inactive; inhibition [3]: inactive; inhibition [4]: inactive; inhibition [5]: inactive; fold change (FC) [6]: 7

Q: With `Cc1cccc(Cc2cc(=O)n3c(c2N(C)C)SCC3C(=O)O)c1C` (racemic) as the compound, how does the IC50 [1] read?
A: 3 µM

Q: And the Activity [7]?
A: Active

Q: What about the inhibition [2] of the same compound?
A: Active

Q: And the inhibition [3]?
A: Active

Q: And the inhibition [4]?
A: Active

Q: What about the inhibition [5] of the same compound?
A: Active

Q: And the Activity (Listeria monocytogenes [8])?
A: Non-Toxic

Q: What about the fold change (FC) [6] of the same compound?
A: 0.6

Q: How did the fold change (FC) [6] turn out when `C=CCOc1c(Cc2cccc3ccccc23)cc(=O)n2c1SCC2C(=O)O` (racemic) was run?
A: 4

Q: For `CC(=O)Nc1c(Cc2cccc3ccccc23)cc(=O)n2c1SCC2C(=O)O` (racemic), which fold change (FC) [6] is on record?
A: 5

Q: For `CC(C)COc1c(Cc2cccc3ccccc23)cc(=O)n2c1SCC2C(=O)O` (racemic), which fold change (FC) [6] is on record?
A: 4

Q: How did the fold change (FC) [6] turn out when `CC(C)Nc1c(Cc2cccc3ccccc23)cc(=O)n2c1SCC2C(=O)O` (racemic) was run?
A: 3

Q: For `CCOc1c(Cc2cccc3ccccc23)cc(=O)n2c1SCC2C(=O)O` (racemic), which fold change (FC) [6] is on record?
A: 5

Q: Which fold change (FC) [6] does the source give for `CCc1cc(=O)n2c(c1N(C)C)SCC2C(=O)O` (racemic) here?
A: 10

Q: With `COC(=O)Nc1c(Cc2cccc3ccccc23)cc(=O)n2c1SCC2C(=O)O` (racemic) as the compound, how does the fold change (FC) [6] read?
A: 6

Q: `CS(=O)(=O)Nc1c(Cc2cccc3ccccc23)cc(=O)n2c1SCC2C(=O)O` (racemic) was tested. Which fold change (FC) [6] did it give?
A: 5

Q: For `CS(=O)(=O)c1c(Cc2cccc3ccccc23)cc(=O)n2c1SCC2C(=O)O` (racemic), which fold change (FC) [6] is on record?
A: 7

Q: `Nc1c(Cc2cccc3ccccc23)cc(=O)n2c1SCC2C(=O)O` (racemic) was tested. Which fold change (FC) [6] did it give?
A: 3

Q: With `O=C(O)C1CSc2c(O)c(Cc3cccc4ccccc34)cc(=O)n21` (racemic) as the compound, how does the fold change (FC) [6] read?
A: 5

Q: `Cc1ccc(Cc2cc(=O)n3c(c2N(C)C)SCC3C(=O)O)c2ccccc12` (racemic; form 1) [listing 1 of 2 here] was tested. Which Activity (Gallus gallus) did it give?
A: Non-Toxic

Q: And the ILS (Listeria monocytogenes [9])?
A: 6 h

Q: And the IC50 [1]?
A: 1.5 µM

Q: What about the Activity (Listeria monocytogenes [8]) of the same compound?
A: Non-Toxic

Q: With `Cc1ccc(Cc2cc(=O)n3c(c2N(C)C)SCC3C(=O)O)c2ccccc12` (racemic; form 1) [listing 2 of 2 here] as the compound, how does the Activity [7] read?
A: Active

Q: What about the Activity (Listeria monocytogenes [10]) of the same compound?
A: inactive

Q: And the inhibition [4]?
A: Active

Q: And the inhibition [5]?
A: Active

Q: And the inhibition [11]?
A: 90%

Q: What about the fold change (FC) [6] of the same compound?
A: 0.7

Q: For `Cc1ccc(Cc2cc(=O)n3c(c2N(C)C)SCC3C(=O)O)c2ccccc12.c1c[nH]cn1` (racemic; form 2), which ILS (Listeria monocytogenes [9]) is on record?
A: 9 h

— ChEMBL document CHEMBL4177765, “Structure-Based Design of Inhibitors Targeting PrfA, the Master Virulence Regulator of Listeria monocytogenes” (J Med Chem, 2018)
